Test results reported in patent US10974064B2, “Optogenetic control of behavioral state” (The Board of Trustees of the Leland Stanford Junior …, priority 2013, dated 2021).

Columns and labels:
adBNST neurons [1] = assay: Calcium imaging (OGB-1) of persistent activity in adBNST slice after electrical stimulation; format: cell-based, mice; conditions: 100 μM APV, then 10 μM NBQX added; N (all cells) 277 for APV, 279 for NBQX + APV
adBNST neurons [2] = assay: Ex vivo slice voltage-clamp recording of light-evoked EPSCs and IPSCs (ChR2 in BLA afferents); format: cell-based, mice; conditions: bath application 100 μM picrotoxin; n=4
Method: For slice physiology in combination with optogenetics, 3-4 week old male wild-type mice were injected with AAV-CaMKIIa::ChR2-eYFP into the BLA, or male Drd1a-Cre mice were injected with AAV-EFla::DIO-ChR2(H134R)-eYFP into the ovBNST. After a month, acute 300 μm coronal slices were obtained by transcardially perfusing ice-cold sucrose cutting solution (in mM; 11 D-glucose, 234 sucrose, 2.5 KCl, 1.25 NaH2PO4, 10 MgSO4, 0.5 CaCl2, 26 NaHCO3) and slicing in the same solution using a vibratome (VT1000S; Leica, Buffalo Grove, Ill., USA). Slices were recovered in oxygenated artificial cerebrospinal fluid (aCSF; in mM, 123 NaCl, 26 NaHCO3, 3 KCl, 1.25 NaH2PO4, 1 MgCl2, 2 CaCl2, and 11 glucose) at 32° C. for one hour. […]
For the blue light delivery, light was emitted from a 300 W broad-wavelength xenon lamp source (DG-4, Sutter Instruments, Novato, Calif., USA), band-pass filtered at 470±20 nm (Semrock; Rochester, N.Y., USA), passed through additional neutral density filters (ThorLabs; Newton, N.J., USA) and coupled to the fluorescence port of the microscope. […]
Voltage-clamp recordings were made at both −70 mV to isolate EPSCs, and at 0 mV to isolate IPSCs. […] Currents were filtered at 2 kHz, digitized at 50 kHz, and recorded to disk using pClamp10 software (Molecular Devices). […]

| Molecule | N (number of cells activated after stimulation) (adBNST neurons [1]) | light-evoked IPSCs (adBNST neurons [2]) |
| --- | --- | --- |
| NC(CCCP(=O)(O)O)C(=O)O (centres unmarked) [APV, 2-amino-5-phosphonopentanoic acid] | 61 | – |
| picrotoxin | – | blocked |
